Data: PMC12754617, “Ruthenium-enhanced curcumin derivatives target tumor growth and cancer-related inflammation in head and neck cancer models” (Frontiers in Oncology, 2025)

Assays:
NF-κB p65 = molecular target: T1, NF-κB p65 (Homo sapiens, UniProt Q04206); test: Intracellular p65-NF-κB ELISA (DNA-binding activity); assay type: cell-based
T1 construct: endogenous in cells; host or cells: THP1-Blue NF-κB cells
From the text: To determine NF-κB p65 transcription factor levels by enzyme-linked immunosorbent assay (ELISA), an assay kit was used (Abcam, ab133112, Cambridge, UK). […] The supernatants were collected and used for the determination of intracellular p65-NF-κB by ELISA.
In this assay, a specific double-stranded DNA (dsDNA) sequence containing the NF-κB p65 response element is immobilized onto the wells of a 96-well plate. NF-κB p65 present in the sample binds specifically to these response elements. Bound p65 is subsequently detected using a primary antibody specific for NF-κB p65, followed by a horseradish peroxidase (HRP)-conjugated secondary antibody. The relevant background values were subtracted from the measured values. Absorbance was measured at 450 nm using an […] 200 PRO microplate reader (Tecan, Switzerland).

[1] = tested on: NF-κB in THP1-Blue NF-κB cells; test: NF-κB activity assay (SEAP reporter, LPS-induced); assay type: cell-based; conditions: LPS 10 ng/mL
Method: THP1-Blue NF-κB cells, NF-κB secreted embryonic alkaline phosphatase (SEAP) reporter monocytes (InvivoGen, USA), were assayed after 20–24 h of incubation following the manufacturer’s protocol. Briefly, cells were seeded at 1 × 10^6 cells/mL in RPMI medium in 96-well plates (180 μL) and treated with complex 3 or 4, Lipopolysaccharide (LPS) (10 ng/mL; […] The next day, NF-κB activation was assessed via the secretion of SEAP. Supernatants (20 μL) were transferred to 96-well plates, and 180 μL of Quanti-Blue was added. Plates were incubated for 2 h at 37°C, and absorbance was measured at 600 nm using an […] 200 PRO microplate reader (TECAN, Switzerland).

FaDu = test: Colony formation assay; assay type: cell-based, human; conditions: 24 h treatment at IC50
Method: (§1) Cells were seeded in six-well plates at a density of 100,000 cells per well (10,000 cells/200 μL) and grown for 24 h. […] Subsequently, cells were reseeded in new six-well plates at a density of 500 cells per well and grown for approximately 2 weeks. The cell culture medium was replaced every 2–3 days. When visible colonies appeared in the six-well plates, the culture was terminated, and the cells were washed twice with ice-cold PBS. The cells were then fixed with ice-cold methanol for 10 min and stained with 0.5% crystal violet solution for 30 min at room temperature. Experiments were performed in four independent replicates. The results were analyzed using the ImageJ plugin ColonyArea, which is optimized for standard analysis of colony formation assays. The plugin processes each well individually and determines not the number of colonies, but the area of the well covered by cells, also considering staining intensity.

HGF = test: Colony formation assay; assay type: cell-based, human; conditions: 24 h treatment at IC50
Method: as §1

Detroit 562 = test: Colony formation assay; assay type: cell-based, human; conditions: Detroit 562, 24 h treatment at IC50
Method: as §1

TR146 = test: Colony formation assay; assay type: cell-based, human; conditions: TR146, 24 h treatment at IC50
Method: as §1

CAL 27 = test: Colony formation assay; assay type: cell-based, human; conditions: CAL 27, 24 h treatment at IC50
Method: as §1

IL-6 = molecular target: T2, IL-6 (Homo sapiens, UniProt P05231); test: Sandwich ELISA assay IL-6; assay type: binding; conditions: 15 μM, 500 pg/mL IL-6
T2 construct: purchased PeproTech, Thermo Fisher Scientific
Method: Human ELISA kits for IL-6, IL-6R, and IL-8 (Sigma-Aldrich, Merck, Germany) were used to quantify cytokine levels after treatment with complex 3 or 4. Briefly, 96-well plates precoated with specific antibodies were used to capture IL-6, IL-6R, and IL-8 from samples. […] Each sample was supplemented with 500 pg/mL of IL-6/IL-6R/IL-8. Positive control wells contained only the IL-6/IL-6R/IL-8 standard (PeproTech, Thermo Fisher Scientific, Waltham, Massachusetts, USA). […] After incubation, wells were washed, and biotinylated antihuman antibodies were added, followed by washing and addition of HRP-conjugated streptavidin. Finally, the TMB substrate was added to develop a color proportional to the cytokine concentration, and the reaction was stopped with the stop solution. Absorbance was measured at 450 nm using an […] 200 PRO microplate reader (TECAN, Switzerland).

T1 sequence (Q04206 whole entry): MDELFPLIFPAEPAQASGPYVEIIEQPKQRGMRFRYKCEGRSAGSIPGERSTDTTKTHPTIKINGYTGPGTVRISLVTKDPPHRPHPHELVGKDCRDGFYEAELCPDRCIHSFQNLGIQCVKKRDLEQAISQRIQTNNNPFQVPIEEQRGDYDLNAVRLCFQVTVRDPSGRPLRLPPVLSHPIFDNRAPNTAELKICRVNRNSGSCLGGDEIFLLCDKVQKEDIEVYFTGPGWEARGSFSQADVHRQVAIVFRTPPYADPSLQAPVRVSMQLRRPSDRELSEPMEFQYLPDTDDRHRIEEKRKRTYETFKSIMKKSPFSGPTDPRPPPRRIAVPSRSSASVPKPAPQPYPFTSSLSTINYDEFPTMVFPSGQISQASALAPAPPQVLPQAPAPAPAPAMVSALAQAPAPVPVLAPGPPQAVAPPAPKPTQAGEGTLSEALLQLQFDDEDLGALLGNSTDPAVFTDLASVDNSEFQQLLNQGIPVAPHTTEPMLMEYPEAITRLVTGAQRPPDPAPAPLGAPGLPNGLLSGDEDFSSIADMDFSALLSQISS
T2 sequence (P05231 30-212): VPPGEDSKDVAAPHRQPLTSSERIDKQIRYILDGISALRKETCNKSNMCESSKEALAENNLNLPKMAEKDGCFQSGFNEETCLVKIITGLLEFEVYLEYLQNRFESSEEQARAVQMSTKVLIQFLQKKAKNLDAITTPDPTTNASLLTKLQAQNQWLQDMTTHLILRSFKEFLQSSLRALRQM

| SMILES | Reduction of NF-κB (p65) levels (NF-κB p65; 1 μM, cellular extracts of THP1-Blue NF-κB cells, LPS) | NF-κB (p65) detected in cellular extracts (NF-κB p65; 8 μM) | Reduction of LPS-induced NF-κB activation ([1]; 8 μM) | Cloning efficiency (%) (FaDu) | Cloning efficiency (%) (HGF) | Cloning efficiency (%) (Detroit 562) | Cloning efficiency (%) (TR146) | Cloning efficiency (%) (CAL 27) | Decrease of IL-6 concentration (IL-6) | Reduction of LPS-induced NF-κB activation ([1]; 15 μM) |
| --- | --- | --- | --- | --- | --- | --- | --- | --- | --- | --- |
| Cc1ccc(C(C)C)cc1.Cc1ccc(C(C)C)cc1.O=C1C(=Cc2ccnc3ccccc23)COCC1=Cc1ccnc2ccccc12.[Cl][Ru][Cl].[Cl][Ru][Cl] [Complex 3] | approximately 70% | less than 5% | approximately 80% | 73 ± 15% | 95 ± 6% | 57 ± 8% | 66 ± 19% | 39 ± 7% | – | – |
| Cc1ccc(C(C)C)cc1.Cc1ccc(C(C)C)cc1.O=C1C(=Cc2cccnc2)CCC1=Cc1cccnc1.[Cl][Ru][Cl].[Cl][Ru][Cl] [Complex 4] | – | – | – | – | – | – | – | – | approximately 30% | about 70% |
